Test results published in patent US11918592B2, “Inhibitors of cyclin dependent kinase 7 (CDK7)” (Syros Pharmaceuticals, Inc., priority 2018, dated 2024).
Like-named read-outs stand apart in the source and are kept apart here.

Assays:
[1] = test system: HCC70 cells; experiment: Inhibition of cell proliferation, CyQUANT Direct, HCC70; format: cell-based, human; conditions: Homo sapiens, read-out: HCC 70 proliferation calculated IC50
Experimental: (§1) HCC70 and MB453 cells are cell lines derived from human triple negative breast cancer. COV318 and COV504 cells are cell lines derived from human ovarian cancer. Representative compounds of the invention were tested at different concentrations (from 4 μM to 126.4 pM; 0.5 log serial dilutions) for their ability to inhibit the proliferation of each of these cell lines. Known CDK inhibitors dinaciclib or N-((1S,3R)-3-((5-chloro-4-(1H-indol-3-yl) pyrimidin-2-yl)amino)cyclohexyl)-5-((E)-4-(dimethylamino)but-2-enamido)picolinamide and triptolide were used as positive controls. Cells were seeded at approximately 2,000 cells/well and grown in ATCC-formulated RPMI-1640 Medium (ATCC 30-2001)+10% FBS. The cells were cultured at 37° C. in a humidified chamber in the presence of 5% CO2. Proliferation assays were conducted over a 72-hour time period. CyQUANT® Direct Cell Proliferation Assay (Life Technologies, Chicago, IL USA) was used to assess the anti-proliferative effects of the compounds following manufacturer's directions and utilizing the reagents supplied with the CyQUANT® Direct Cell kit.

[2] = test system: COV318 cells; experiment: Inhibition of cell proliferation, CyQUANT Direct, COV318; format: cell-based; conditions: Homo sapiens; COV318 ovarian cancer cells, 72-hour; read-out: COV 318 proliferation calculated IC50
Experimental: as §1

[3] = test system: COV504 cells; experiment: Inhibition of cell proliferation, CyQUANT Direct, COV504; format: cell-based; conditions: Homo sapiens; COV504 ovarian cancer cells, 72-hour; read-out: COV 504 proliferation calculated IC50
Experimental: as §1

[4] = test system: MB453 cells; experiment: Inhibition of cell proliferation, CyQUANT Direct, MB453; format: cell-based, human; conditions: Homo sapiens, read-out: MB 453 proliferation calculated IC50
Experimental: as §1

[5] = target: CDK2/Cyclin E1 complex (Homo sapiens, UniProt P24941); experiment: CDK2 kinase inhibition assay (Caliper/LabChip EZ Reader)
Experimental: (§2) Compounds of the invention were assayed for inhibition of CDK7, CDK9, CDK12, and CDK2 activity at Biortus Biosciences (Jiangyin, Jiangsu Province, P.R. of China) using kinase assays for each CDK developed with a Caliper/LabChip EZ Reader (Perkin Elmer, Waltham, MA).
(§3) Furthermore, the CDK9 inhibition assay used CDK9/Cyclin T1 complex (8 nM) and “5-FAM-CDK9tide” peptide substrate (2 μM, synthesized fluorophore-labeled peptide with the following sequence: 5-FAM-GSRTPMY-NH2 (SEQ ID NO:2) where 5-FAM is defined above and NH2 signifies a C-terminal amide) with 10 mM MgCl2 in the buffer composition listed above. The CDK12 inhibition assay used CDK12 (aa686-1082)/Cyclin K complex (50 nM) and “5-FAM-CDK9tide” (2 μM) as defined above, with 2 mM MgCl2 in the buffer composition above. Additionally, the CDK2 inhibition assay used CDK2/Cyclin E1 complex (0.5 nM) and “5-FAM-CDK7tide” (2 μM) as defined above, with 2 mM MgCl2 in the buffer composition listed above.
(§4) The incubation period at 27° C. for each CDK inhibition assay was chosen such that the fraction of phosphorylated peptide product produced in each assay, relative to the total peptide concentration, was approximately 20% (±5%) for the uninhibited kinase (35 min. for CDK7, 35 min. for CDK2, 3 hr. for CDK12, 15 min. for CDK9).

[6] = target: CDK7/Cyclin H/MAT1 complex (Homo sapiens, UniProt P50613); experiment: CDK7 kinase inhibition assay (Caliper/LabChip EZ Reader)
[7] = target: CDK9/Cyclin T1 complex (Homo sapiens, UniProt P50750); experiment: CDK9 kinase inhibition assay (Caliper/LabChip EZ Reader)
[8] = target: CDK12 (aa686-1082)/Cyclin K complex (Homo sapiens, UniProt Q9NYV4); experiment: CDK12 kinase inhibition assay (Caliper/LabChip EZ Reader)
Experimental: as §2, §3, §4

[9] = HCC70 triple negative breast cancer cells, 72-hour
[10] = MB453 triple negative breast cancer cells, 72-hour

Chain of CDK12 (aa686-1082)/Cyclin K complex (Q9NYV4 686-1082): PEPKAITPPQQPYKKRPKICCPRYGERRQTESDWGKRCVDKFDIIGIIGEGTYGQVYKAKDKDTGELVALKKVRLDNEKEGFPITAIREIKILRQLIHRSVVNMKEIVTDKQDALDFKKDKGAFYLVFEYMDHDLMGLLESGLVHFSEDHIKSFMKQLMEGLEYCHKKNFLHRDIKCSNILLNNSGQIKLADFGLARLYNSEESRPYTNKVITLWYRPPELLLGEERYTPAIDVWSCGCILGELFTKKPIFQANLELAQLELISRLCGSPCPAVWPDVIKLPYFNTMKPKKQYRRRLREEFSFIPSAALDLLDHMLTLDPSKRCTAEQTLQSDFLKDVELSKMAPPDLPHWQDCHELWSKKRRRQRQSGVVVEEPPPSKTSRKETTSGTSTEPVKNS
Chain of CDK12 (aa686-1082)/Cyclin K complex (O75909 whole entry partner, the tested form may be a part): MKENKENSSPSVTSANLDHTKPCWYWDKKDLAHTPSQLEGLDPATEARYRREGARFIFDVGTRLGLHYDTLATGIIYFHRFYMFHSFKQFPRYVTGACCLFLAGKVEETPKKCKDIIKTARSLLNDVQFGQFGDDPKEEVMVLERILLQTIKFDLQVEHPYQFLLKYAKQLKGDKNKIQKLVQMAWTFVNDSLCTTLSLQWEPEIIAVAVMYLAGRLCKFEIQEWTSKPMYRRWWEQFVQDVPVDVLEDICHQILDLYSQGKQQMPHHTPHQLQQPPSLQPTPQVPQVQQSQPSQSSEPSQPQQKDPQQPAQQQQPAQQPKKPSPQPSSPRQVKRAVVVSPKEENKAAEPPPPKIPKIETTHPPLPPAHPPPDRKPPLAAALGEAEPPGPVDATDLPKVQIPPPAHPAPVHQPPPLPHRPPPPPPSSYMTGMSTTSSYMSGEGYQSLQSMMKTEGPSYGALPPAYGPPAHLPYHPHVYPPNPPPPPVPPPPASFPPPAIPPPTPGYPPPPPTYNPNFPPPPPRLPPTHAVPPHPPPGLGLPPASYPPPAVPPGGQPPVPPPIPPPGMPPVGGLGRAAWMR
Chain of CDK9/Cyclin T1 complex (P50750 whole entry, the tested form may be a part): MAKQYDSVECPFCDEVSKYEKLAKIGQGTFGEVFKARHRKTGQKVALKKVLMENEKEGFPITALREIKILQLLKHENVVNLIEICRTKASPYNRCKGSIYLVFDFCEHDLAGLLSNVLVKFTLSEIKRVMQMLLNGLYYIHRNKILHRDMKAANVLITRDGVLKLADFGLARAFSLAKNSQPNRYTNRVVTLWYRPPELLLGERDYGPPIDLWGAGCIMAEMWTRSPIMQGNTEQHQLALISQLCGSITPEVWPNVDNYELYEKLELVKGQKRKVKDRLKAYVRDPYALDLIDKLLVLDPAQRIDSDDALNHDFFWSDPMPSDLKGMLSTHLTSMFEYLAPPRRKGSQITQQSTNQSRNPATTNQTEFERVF
Chain of CDK9/Cyclin T1 complex (O60563 whole entry partner, the tested form may be a part): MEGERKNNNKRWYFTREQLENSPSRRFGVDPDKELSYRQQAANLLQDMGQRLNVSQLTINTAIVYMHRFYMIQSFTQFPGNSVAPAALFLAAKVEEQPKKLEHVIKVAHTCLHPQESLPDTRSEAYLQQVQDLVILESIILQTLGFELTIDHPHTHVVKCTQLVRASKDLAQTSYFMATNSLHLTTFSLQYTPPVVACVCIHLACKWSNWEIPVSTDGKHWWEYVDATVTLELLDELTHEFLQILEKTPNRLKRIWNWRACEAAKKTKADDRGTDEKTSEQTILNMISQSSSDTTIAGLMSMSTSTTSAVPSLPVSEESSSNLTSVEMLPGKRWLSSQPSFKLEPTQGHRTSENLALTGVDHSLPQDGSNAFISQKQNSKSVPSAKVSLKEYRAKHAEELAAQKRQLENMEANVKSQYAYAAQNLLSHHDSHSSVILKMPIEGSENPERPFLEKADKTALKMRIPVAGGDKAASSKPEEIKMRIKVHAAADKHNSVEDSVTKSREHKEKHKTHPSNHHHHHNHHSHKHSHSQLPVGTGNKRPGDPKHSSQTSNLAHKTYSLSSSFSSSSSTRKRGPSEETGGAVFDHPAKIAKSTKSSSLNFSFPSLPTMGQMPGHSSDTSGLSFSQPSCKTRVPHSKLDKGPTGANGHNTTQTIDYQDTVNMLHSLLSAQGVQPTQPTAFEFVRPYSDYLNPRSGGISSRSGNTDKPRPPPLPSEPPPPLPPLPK
Chain of CDK7/Cyclin H/MAT1 complex (P50613 whole entry): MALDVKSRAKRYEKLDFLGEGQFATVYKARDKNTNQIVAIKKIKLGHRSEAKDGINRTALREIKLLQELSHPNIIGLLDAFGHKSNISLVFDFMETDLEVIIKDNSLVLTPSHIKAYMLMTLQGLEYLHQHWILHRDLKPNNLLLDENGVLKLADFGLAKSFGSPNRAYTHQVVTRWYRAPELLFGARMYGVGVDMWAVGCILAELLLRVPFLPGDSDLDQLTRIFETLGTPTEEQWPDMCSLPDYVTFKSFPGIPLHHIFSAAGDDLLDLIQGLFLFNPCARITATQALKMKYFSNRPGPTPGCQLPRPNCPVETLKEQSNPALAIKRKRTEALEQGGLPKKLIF
Chain of CDK7/Cyclin H/MAT1 complex (P51946 whole entry partner): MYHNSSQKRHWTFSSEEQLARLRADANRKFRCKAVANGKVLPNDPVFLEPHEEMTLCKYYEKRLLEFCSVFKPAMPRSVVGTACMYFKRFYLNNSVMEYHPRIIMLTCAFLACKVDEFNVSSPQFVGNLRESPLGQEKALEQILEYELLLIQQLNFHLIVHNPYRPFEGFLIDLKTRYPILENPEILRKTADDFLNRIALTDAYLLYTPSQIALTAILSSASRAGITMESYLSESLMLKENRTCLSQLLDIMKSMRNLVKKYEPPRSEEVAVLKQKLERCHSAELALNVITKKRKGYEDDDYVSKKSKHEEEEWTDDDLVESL
Chain of CDK7/Cyclin H/MAT1 complex (P51948 whole entry partner): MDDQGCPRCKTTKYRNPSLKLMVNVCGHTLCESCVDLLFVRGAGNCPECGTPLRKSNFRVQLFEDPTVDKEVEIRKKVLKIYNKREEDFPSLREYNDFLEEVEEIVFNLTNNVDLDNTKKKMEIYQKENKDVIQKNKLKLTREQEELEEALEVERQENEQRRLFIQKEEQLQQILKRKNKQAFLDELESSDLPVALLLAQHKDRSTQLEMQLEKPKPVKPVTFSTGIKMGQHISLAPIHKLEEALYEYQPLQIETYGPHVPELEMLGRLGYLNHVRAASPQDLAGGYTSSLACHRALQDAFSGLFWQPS

SMILES	IC50 [1, 9]	IC50 [2]	IC50 [3]	IC50 [4, 10]	IC50 [5]	IC50 [6]	IC50 [7]	IC50 [8]	IC50 ([1]; HCC70, 72 h)	IC50 ([4]; 72 h)
CN(C)[C@H]1CCC[C@@H]1Nc1ncc(C(F)(F)F)c(-c2c[nH]c3cc(C#N)ccc23)n1 [Compound 124]	500 to 2000 nM	> 2000 nM	500 to 2000 nM	500 to 2000 nM	> 500 nM	100 to 500 nM	> 500 nM	> 500 nM		
CCN[C@H]1CC[C@@H]1Nc1ncc(C(F)(F)F)c(-c2c[nH]c3nc(-c4c(C)noc4C)ccc23)n1 [Compound 160, (1S,2S)—N2-[4-[6-(3,5-dimethylisoxazol-4-yl)-1H-pyrrolo[2,3-b]pyridin-3-yl]-5-(trifluoromethyl)pyrimidin-2-yl]-N1-ethyl-cyclobutane-1,2-diamine]	< 100 nM	< 100 nM	< 100 nM	< 100 nM	> 500 nM	< 30 nM	> 500 nM	> 500 nM		
N#Cc1ccc2c(-c3nc(N[C@@H]4CC[C@H]4N4CCOCC4)ncc3C(F)(F)F)c[nH]c2c1 [Compound 132]	> 2000 nM	> 2000 nM	> 2000 nM	> 2000 nM	> 500 nM	> 500 nM	> 500 nM	> 500 nM		
Cc1noc(C)c1-c1ccc2c(-c3nc(N[C@H]4CCC[C@@H]4N4CCC4)ncc3C(F)(F)F)c[nH]c2n1 [Compound 146, N-[(1S, 2S)-2-(azetidin-1-yl)cyclopentyl]-4-[6-(3,5-dimethylisoxazol-4-yl)-1H-pyrrolo [2,3-b]pyridin-3-yl]-5-(trifluoromethyl) pyrimidin-2-amine]		> 2000 nM	< 100 nM		> 500 nM	< 30 nM	> 500 nM	> 500 nM	< 100 nM	< 100 nM
CP(C)(=O)c1c(C#N)ccc2c(-c3nc(N[C@H]4CCC[C@@H]4N)ncc3C(F)(F)F)c[nH]c12 [Compound 161, 3-[2-[[(1S,2S)-2-aminocyclopentyl]amino]-5-(trifluoromethyl)pyrimidin-4-yl]-7-dimethylphosphoryl-1H-indole-6-carbonitrile]	< 100 nM	100 to 500 nM	< 100 nM	< 100 nM	> 500 nM	< 30 nM	> 500 nM	> 500 nM		
CC(=O)N[C@H]1CCC[C@@H]1Nc1ncc(C(F)(F)F)c(-c2c[nH]c3cc(C#N)ccc23)n1 [Compound 120, N-[(1S,2S)-2-[[4-(6-cyano-1H-indol-3-yl)-5-(trifluoromethyl)pyrimidin-2-yl]-amino]cyclopentyl]-acetamide]	> 2000 nM	> 2000 nM	> 2000 nM	> 2000 nM	> 500 nM	> 500 nM	> 500 nM	> 500 nM		
N#Cc1ccc2c(-c3nc(N[C@H]4CN[C@H](CO)C4)ncc3C(F)(F)F)c[nH]c2c1 [Compound 112]	> 2000 nM	> 2000 nM	> 2000 nM	500 to 2000 nM	> 500 nM	100 to 500 nM	> 500 nM	> 500 nM		
CN(C)[C@H]1CC[C@@H]1Nc1ncc(C(F)(F)F)c(-c2c[nH]c3cc(C#N)ccc23)n1 [Compound 126, 3-[2-[[(1S,2S)-2-(dimethylamino)cyclobutyl]-amino]-5-(trifluoromethyl)pyrimidin-4-yl]-1H-indole-6-carbonitrile]	> 2000 nM	> 2000 nM	100 to 500 nM	100 to 500 nM	> 500 nM	30 to 100 nM	> 500 nM	> 500 nM		
N#Cc1ccc2c(-c3nc(N[C@H]4CC[C@@H]4N4CCCC4)ncc3C(F)(F)F)c[nH]c2c1 [Compound 135, 3-[2-[[(1S,2S)-2-pyrrolidin-1-ylcyclobutyl]-amino]-5-(trifluoromethyl)pyrimidin-4-yl]-1H-indole-6-carbonitrile]	> 2000 nM	> 2000 nM	500 to 2000 nM	100 to 500 nM	> 500 nM	< 30 nM	> 500 nM	> 500 nM		
Cc1noc(C)c1-c1ccc2c(-c3nc(N[C@H]4CCC[C@@H]4N4CC[C@H](F)C4)ncc3C(F)(F)F)c[nH]c2n1 [Compound 150, 4-[6-(3,5-dimethylisoxazol-4-yl)-1H-pyrrolo[2,3-b]pyridin-3-yl]-N-[(1S,2S)-2-[(3S)-3-fluoropyrrolidin-1-yl]cyclopentyl]-5-(trifluoromethyl)pyrimidin-2-amine]	500 to 2000 nM	> 2000 nM	500 to 2000 nM	> 2000 nM	> 500 nM	30 to 100 nM	> 500 nM	> 500 nM		
Cc1noc(C)c1-c1ccc2c(-c3nc(N[C@H]4CCC[C@H]4N4CC(O)C4)ncc3C(F)(F)F)c[nH]c2n1 [Compound 163, 1-[(1R,2S)-2-[[4-[6-(3,5-dimethylisoxazol-4-yl)-1H-pyrrolo[2,3-b]pyridin-3-yl]-5-(trifluoromethyl)pyrimidin-2-yl]amino]cyclopentyl]azetidin-3-ol]	> 2000 nM	> 2000 nM	> 2000 nM	500 to 2000 nM	> 500 nM	30 to 100 nM	> 500 nM	> 500 nM		
Cc1noc(C)c1-c1ccc2c(-c3nc(N[C@H]4CC[C@@H]4N)ncc3C(F)(F)F)c[nH]c2c1 [Compound 116, (1S,2S)—N2-[4-[6-(3,5-dimethylisoxazol-4-yl)-1H-indol-3-yl]-5-(trifluoromethyl)pyrimidin-2-yl]cyclobutane-1,2-diamine]	100 to 500 nM	100 to 500 nM	100 to 500 nM	< 100 nM	> 500 nM	< 30 nM	> 500 nM	> 500 nM		
Cc1nsc(-c2ccc3c(-c4nc(N[C@H]5CCC[C@@H]5N)ncc4C(F)(F)F)c[nH]c3n2)n1 [Compound 158, (1S,2S)—N1-[4-[6-(3-methyl-1,2,4-thiadiazol-5-yl)-1H-pyrrolo [2,3-b]pyridin-3-yl]-5-(trifluoromethyl)pyrimidin-2-yl]cyclopentane-1,2-diamine]	500 to 2000 nM	> 2000 nM	> 2000 nM	500 to 2000 nM	> 500 nM	< 30 nM	> 500 nM	> 500 nM		
CCN[C@H]1CCC[C@@H]1Nc1ncc(C(F)(F)F)c(-c2c[nH]c3nc(-c4c(C)noc4C)ccc23)n1 [Compound 145, (1S, 2S)—N1-[4-[6-(3,5-dimethylisoxazol-4-yl)-1H-pyrrolo [2,3-b]pyridin-3-yl]-5-(trifluoromethyl)pyrimidin-2-yl]-N2-ethyl-cyclopentane-1,2-diamine]		< 100 nM	< 100 nM		> 500 nM	< 30 nM	> 500 nM	> 500 nM	< 100 nM	< 100 nM
COCCN[C@H]1CC[C@@H]1Nc1ncc(C(F)(F)F)c(-c2c[nH]c3cc(C#N)ccc23)n1 [Compound 133]	500 to 2000 nM	500 to 2000 nM	500 to 2000 nM	500 to 2000 nM	> 500 nM	30 to 100 nM	> 500 nM	> 500 nM		
N#Cc1ccc2c(-c3nc(N[C@H]4CC[C@@H]4N)ncc3C(F)(F)F)c[nH]c2c1 [Compound 103]	100 to 500 nM	100 to 500 nM	100 to 500 nM	100 to 500 nM	> 500 nM	< 30 nM	> 500 nM	> 500 nM		
CC(=O)N[C@H]1CC[C@@H]1Nc1ncc(C(F)(F)F)c(-c2c[nH]c3cc(C#N)ccc23)n1 [Compound 125, N-[(1S,2S)-2-[[4-(6-cyano-1H-indol-3-yl)-5-(trifluoromethyl)pyrimidin-2-yl]-amino]-cyclobutyl]-acetamide]	> 2000 nM	> 2000 nM	> 2000 nM	500 to 2000 nM	> 500 nM	> 500 nM	> 500 nM	> 500 nM		
Cc1noc(C)c1-c1ccc2c(-c3nc(N[C@H]4CCC[C@@H]4N)ncc3C(F)(F)F)n[nH]c2n1 [Compound 157, (1S,2S)—N1-[4-[6-(3,5-dimethylisoxazol-4-yl)-1H-pyrazolo [3,4-b]pyridin-3-yl]-5-(trifluoromethyl)pyrimidin-2-yl]cyclopentane-1,2-diamine]	100 to 500 nM	100 to 500 nM	100 to 500 nM	100 to 500 nM	> 500 nM	< 30 nM	> 500 nM	> 500 nM		
